The target of this experiment is T1, Baker's yeast inorganic pyrophosphatase (PPase, EC 3.6.1.1) (Saccharomyces cerevisiae, UniProt P00817).
T1 construct: gene IPP1
Put plainly: Fluorescent Cu2+-DHC-PPi displacement assay of PPase activity after preincubation with NaF. The class given is biochemical.

T1 sequence (P00817 2-287): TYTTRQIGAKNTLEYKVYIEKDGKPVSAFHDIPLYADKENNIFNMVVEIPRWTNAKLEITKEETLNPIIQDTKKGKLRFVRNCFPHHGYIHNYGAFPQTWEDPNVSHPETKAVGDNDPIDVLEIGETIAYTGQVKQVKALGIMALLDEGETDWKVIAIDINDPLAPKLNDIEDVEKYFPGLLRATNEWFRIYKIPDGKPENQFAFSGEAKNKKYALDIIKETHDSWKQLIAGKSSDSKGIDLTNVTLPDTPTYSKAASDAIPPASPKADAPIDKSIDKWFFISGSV

The IC50 is the point on the concentration scale where inhibition reaches its midpoint. A low value points to higher potency. Take `[F-].[Na+]` [NaF]: the IC50 was about 18.2 µM.

Source of the values: publication PMC5059578, “Construction of a Turn Off-On-Off Fluorescent System Based on Competitive Coordination of Cu^2+ between 6,7-Dihydroxycoumarin and Pyrophosphate Ion for Sensitive Assay of Pyrophosphatase Activity” (Journal of Analytical Methods in Chemistry, 2016).
